Measurements reported in US9718869B2, “Peptide-based compounds and uses thereof to treat beta-amyloid accumulation” (MANUS PHARMACEUTICALS (CANADA) LTD., priority 2012, dated 2017).
Several values for one entry are separate records, joined by “and”; a condition that tells them apart may be missing. Equal values may be shown once. Entries after “also recorded” stand apart in the source; their conditions may differ. Read-outs that look alike come from different tables or passages of the source. No end group written: not given here.

What was measured:
[1] = test system: bulbectomized mice; test: Morris water maze spatial memory test, bulbectomized mice immunized with (FR-3-NP-1)2-Lys-OH / (R-2-FR-3-NP-1)2-Lys-OH in IFA (Example 3); assay type: in vivo, NMRI mice; details: four immunizations with IFA; for Number of visits to the training/rescue compartment (in words) / Time spent in the training/rescue compartment (in words): BE mice
Experimental: Immunization was carried out in four stages.
Each group consisted of 5-8 mice.

[2] = test system: bulbectomized (BE) mice; test: Morris water maze spatial memory test, bulbectomized mice immunized with KLH conjugates of NP-1 fragments (Example 2); assay type: in vivo, NMRI mice; details: KLH conjugate, 1st immunization CFA, 2nd IFA, 0.1 mg/mouse
Experimental: NMRI mice (see Example 1) were immunized with peptides conjugated to snail keyhole limpet hemocyanin (KLH).
In this study, a scheme with a double introduction of peptides into mice with complete Freund's adjuvant (CFA) for the first immunization and incomplete Freund's adjuvant (IFA) for the second immunization was used. Between the first and second immunization a bulbectomy was performed. After the second immunization, one month after bulbectomy, the mice's state of spatial memory was tested, after which the mice were put down and their blood and cerebrospinal fluid were collected to determine their level of antipeptide antibodies.
To prepare the peptide conjugates with KLH, 0.75 mg of peptide was dissolved in 0.65 ml of KLH in PBS with a protein concentration of 5.8 mg/ml and stirred for an hour while adding 38 μl of 2.5% glutaraldehyde solution in PBS. The resulting solution was stirred for 15 hours and dialyzed against PBS for 20 hours.
Tables 12 and 13 present the results of statistical analysis of spatial memory test data using univariate analysis (one-way ANOVA), to judge the ability of the animal to distinguish sections of the Morris water maze.

[3] = test system: animals with experimentally induced AD; details: cited from earlier work
[4] = test system: bulbectomized (BE) mice; test: Morris water maze spatial memory test, bulbectomized mice immunized with NP-1 / R-1-NP-1 in IFA (Example 1); assay type: in vivo, NMRI mice; details: for Ratio of sector visits to total number of all visits, sector 1 / Ratio of sector visits to total number of all visits, sector 2 / Ratio of sector visits to total number of all visits, sector 3 (training sector with platform) / Ratio of sector visits to total number of all visits, sector 4 / Time spent in sector 1 / Time spent in sector 2 / Time spent in sector 3 (training sector with platform) / Time spent in sector 4: BE (bulbectomized) mice, 4 immunizations with IFA, 1 min memory test; for Effect of immunization on spatial memory of BE mice (in words): immunization with IFA, no complete Freund's adjuvant
Experimental: The immunization was carried out in four stages.
This method enables separate evaluation of learning and memory.

[5] = test system: sham operated (SO) mice; details: mouse, in vivo
Experimental: Experiments were performed on NMRI mice weighing 20-30 g. Initiation of Alzheimer's type neurodegenerative process was caused by the removal of the animal's olfactory bulb (bulbectomy). The operation was performed under sterile conditions under nembutal anesthesia (40 mg/kg). For local anaesthesia during scalping, a subcutaneous injection of 0.5% solution of novocaine was used. […] A group of animals to serve as control was sham-operated (SO); these animals were subjected to the same procedure but without removal of the olfactory bulbs. After surgery all animals were injected with “Bitsillin 5” antibiotic into the muscles of the hind paw at a dose of 6000 units for the prevention of infection. Upon completion of behavioral experiments, morphological studies of animal brains were conducted to ensure complete removal of olfactory bulbs.
The state of spatial memory was assessed after mice had developed spatial skills in the Morris water maze, which combines training in the formation of active avoidance and the ability to navigate in space. This method enables separate evaluation of learning and memory.
The experimental chamber was a plastic pool of dimensions 100×60×30 cm, filled with water at a temperature of 23 degrees Celsius. […] The water was clouded with milk so that animals could not visually detect the rescue platform.
All mice were pre-tested for the ability to swim and absence of an original sector preference in the water maze. The goal of the education was to have mice in one minute find the underwater platform and remember its location. Training was conducted in four sessions every day for five days, and the latency period for finding the platform was recorded for every session. 24 hours after completion of training, the level of the animal's spatial memory in the absence of a rescue platform was tested for one minute. Two indicators were used in analyzing the results: the number of visits to each sector of the maze and time spent in each sector.
Two-factor analysis (general ANOVA) was used for statistical analysis of behavioral data. Post-hoc analysis was performed using the criterion of LSD (least significant difference). The reliability of the results was also evaluated using two-tailed Student's t-test.

[6] = test system: β-amyloid (1-40); details: mouse, in vivo
Experimental: (§1) To collect brain structures to determine the biochemical level of β-amyloid, mice were decapitated and the brain was removed in the cold. The cortex was removed by scalpel from both hemispheres, the hippocampus was bilaterally removed, the probes were placed in labeled plastic test tubes that were frozen at −80° C. and stored in a freezer until the biochemical study of the level of β-amyloid.
(§2) Biochemical identification of β-amyloid (1-40) by enzyme immunoassay was performed as follows: samples of the cortex and hippocampus, which were stored at −80° C. after collection, were weighed, thawed at room temperature, and then homogenized in a solution of 2% CHAPS 20 mM Tris-HCl (pH 7.7) in the presence of protease inhibitors (10 μg/ml leupeptin, 10 μg/ml aprotinin and 10 μg/ml AEBSF) in a volume calculated for each sample (4 ml of solution per 1 g of tissue), using a RT-12 tissue microgrinder in a glass beaker for the homogenization using a ground-glass pestle. Homogenates were centrifuged at 21,000 g at 4° C. for 30 min. Selected supernatants were stored at −80° C. and thawed immediately prior to the immunoassay analysis.
Another part of the samples were homogenized in 5 M guanidine-HCl solution of 50 mM Tris-HCl (pH 8.0), in a volume calculated for each sample (400 mcl of solution per 50 mg of tissue). […]

[7] = test system: β-amyloid (1-40); test: ELISA of β-amyloid (1-40) in brain (cortex+hippocampus) of bulbectomized immunized mice; assay type: in vivo, NMRI mice; details: for Average level of βA / Individual levels of βA: BE (bulbectomized) mice, cortex+hippocampus; for Individual levels of βA: one value per mouse
Experimental: as §1, §2
Another part of the samples were homogenized in 5 M guanidine-HCl solution of 50 mM Tris-HCl (pH 8.0), in a volume calculated for each sample (400 mcl of solution per 50 mg of tissue). The samples were stirred for 3-4 hours at room temperature, then diluted in BSAT-DPBS (5% BSA, 0.03% Tween-20) buffer, centrifuged at 21,000 g at 4° C. for 30 min, after which the supernatants were collected.
The immunosorbent assay was performed using the instructions on the ELISA for the determination of β-amyloid (1-40) (Aβ40) mouse (ELISA kit mouse Aβ40, Invitrogen).
After testing the memory of all groups of animals, brain perfusion was carried out in the cold under deep anaesthesia, and individual samples of brain tissue (cortex+hippocampus) were collected, which were stored in a freezer at a temperature of −80° C. until biochemical studies.

## (cyclo(Ala-Glu)(Trp-Ser-Glu-Arg-Phe-Tyr-Glu-Cys-Cys-Lys-Glu))2-Lys-OH ({cyclo(Ala-Glu)}-WSERFYECCKEK-OH; cysteine pairing not given here; also: dimer: two chains joined on Lys-OH) [(R-2-FR-3-NP-1)2-Lys-OH]
[1]
  Number of visits to the training/rescue compartment (in words): preferred the second and third compartments
  Time spent in the training/rescue compartment (in words): selected the third compartment with statistical significance

## EWDLVGIPGKRSERFY [FR-1-NP-1]
[2]
  Ratio of sector visits to total number of all visits, sector 1: 22.17 ± 2.63 percentage
  Ratio of sector visits to total number of all visits, sector 2: 30.17 ± 1.49 percentage
  Ratio of sector visits to total number of all visits, sector 3 (training sector with platform): 30.83 ± 2.32 percentage
  Ratio of sector visits to total number of all visits, sector 4: 18.33 ± 1.74 percentage
  Time spent in sector 1: 15.83 ± 2.88 s
  Time spent in sector 2: 17.0 ± 2.21 s
  Time spent in sector 3 (training sector with platform): 18.33 ± 2.04 s
  Time spent in sector 4: 8.83 ± 0.7 s

## EWDLVGIPGKRSERFYECCKE (cysteine pairing not given here) [NP-1, 2372355, reference compound]
[3]; animals with experimentally induced AD
  Brain levels of βA (in words): prevented an increase in brain levels of βA
[3]; in vivo
  Antibodies produced by immunization (in words): produced antibodies capable of binding to the type α7 AChRs
  Spatial memory in healthy animals (in words): did not lead to deterioration of spatial memory
[4]
  Ratio of sector visits to total number of all visits, sector 1: 26.6 ± 1.54 percentage
  Ratio of sector visits to total number of all visits, sector 2: 27.8 ± 2.06 percentage
  Ratio of sector visits to total number of all visits, sector 3 (training sector with platform): 24.2 ± 0.49 percentage
  Ratio of sector visits to total number of all visits, sector 4: 21.2 ± 1.6 percentage
  Time spent in sector 1: 17 ± 0.84 s
  Time spent in sector 2: 15.2 ± 1.69 s
  Time spent in sector 3 (training sector with platform): 16 ± 11.14 s
  Time spent in sector 4: 11.8 ± 1.91 s
  Effect of immunization on spatial memory of BE mice (in words): not capable of recalling the training sector; also recorded: did not improve their memory; also recorded: did not show protective activity; also recorded: did not exhibit memory protection
[5]
  Ratio of sector visits to total number of all visits, sector 1: 14.5 ± 1.89 percentage
  Ratio of sector visits to total number of all visits, sector 2: 27.5 ± 2.1 percentage
  Ratio of sector visits to total number of all visits, sector 3 (training sector with platform): 40.75 ± 3.15 percentage
  Ratio of sector visits to total number of all visits, sector 4: 18 ± 2.08 percentage
  Time spent in sector 1: 10.5 ± 2.25 s
  Time spent in sector 2: 13 ± 1.68 s
  Time spent in sector 3 (training sector with platform): 27.5 ± 1.5 s
  Time spent in sector 4: 9 ± 1.58 s
[6]
  Average level of βA: 3.22 ± 0.38 ng/g tissue
[7]
  Change of βA level versus non-immunized BE mice (in words): significant reduction of β-amyloid
  Average level of βA: 2.44 ± 0.38 ng/g tissue
  Individual levels of βA: 3.039 ng/g tissue and 2.316 ng/g tissue and 3.324 ng/g tissue and 1.115 ng/g tissue and 2.408 ng/g tissue

## IPGKRSERFY [FR-2-NP-1]
[2]
  Ratio of sector visits to total number of all visits, sector 1: 17.17 ± 2.32 percentage
  Ratio of sector visits to total number of all visits, sector 2: 34.5 ± 2.05 percentage
  Ratio of sector visits to total number of all visits, sector 3 (training sector with platform): 35.51 ± 2.64 percentage
  Ratio of sector visits to total number of all visits, sector 4: 13.67 ± 2.53 percentage
  Time spent in sector 1: 12.33 ± 2.38 s
  Time spent in sector 2: 18.33 ± 1.82 s
  Time spent in sector 3 (training sector with platform): 20.1 ± 1.86 s
  Time spent in sector 4: 8.33 ± 1.98 s

## SERFYECCKE (cysteine pairing not given here) [FR-3-NP-1]
[2]
  Ratio of sector visits to total number of all visits, sector 1: 20.75 ± 1.25 percentage
  Ratio of sector visits to total number of all visits, sector 2: 26.25 ± 2.95 percentage
  Ratio of sector visits to total number of all visits, sector 3 (training sector with platform): 32.0 ± 4.3 percentage
  Ratio of sector visits to total number of all visits, sector 4: 21.0 ± 2.38 percentage
  Time spent in sector 1: 13.0 ± 1.91 s
  Time spent in sector 2: 13.75 ± 2.1 s
  Time spent in sector 3 (training sector with platform): 25.25 ± 3.47 s
  Time spent in sector 4: 8.0 ± 1.58 s

## Ser-Glu-Arg-Phe-Tyr-Glu-Cys-Cys-Lys-Glu-Lys(Ser-Glu-Arg-Phe-Tyr-Glu-Cys-Cys-Lys-Glu)-OH [(FR-3-NP-1)2-Lys-OH]
[1]
  Number of visits to the training/rescue compartment (in words): much worse
  Time spent in the training/rescue compartment (in words): much worse
  Effect of immunization on spatial memory of BE mice (in words): only a slight tendency towards improvement of spatial memory

## cyclo(Ala-Glu)-Trp-(Glu-Trp-Asp-Leu-Val-Gly-Ile-Pro-Gly-Lys-Arg-Ser-Glu-Arg-Phe-Tyr-Cys-Cys-Lys-Glu) ({cyclo(Ala-Glu)}-WEWDLVGIPGKRSERFYCCKE; cysteine pairing not given here) [R-1-NP-1]
[4]
  Ratio of sector visits to total number of all visits, sector 1: 20.67 ± 2.2 percentage
  Ratio of sector visits to total number of all visits, sector 2: 27 ± 1.46 percentage
  Ratio of sector visits to total number of all visits, sector 3 (training sector with platform): 34.33 ± 2.44 percentage
  Ratio of sector visits to total number of all visits, sector 4: 18.17 ± 1.49 percentage
  Time spent in sector 1: 12.17 ± 2.06 s
  Time spent in sector 2: 13.67 ± 1.5 s
  Time spent in sector 3 (training sector with platform): 25.33 ± 4.02 s
  Time spent in sector 4: 8.83 ± 1.85 s
  Effect of immunization on spatial memory of BE mice (in words): showed improvement of spatial memory; also recorded: resulted in improved memory; also recorded: protects the spatial memory; also recorded: led to memory protection
[5]
  Ratio of sector visits to total number of all visits, sector 1: 12.4 ± 2.7 percentage
  Ratio of sector visits to total number of all visits, sector 2: 26 ± 2.86 percentage
  Ratio of sector visits to total number of all visits, sector 3 (training sector with platform): 40 ± 2.19 percentage
  Ratio of sector visits to total number of all visits, sector 4: 22.2 ± 3.18 percentage
  Time spent in sector 1: 7.2 ± 1.83 s
  Time spent in sector 2: 14 ± 2.43 s
  Time spent in sector 3 (training sector with platform): 30.41 ± 2.42 s
  Time spent in sector 4: 8.4 ± 1.96 s
[6]
  Average level of βA: 2.78 ± 0.21 ng/g tissue
[7]
  Change of βA level versus non-immunized BE mice (in words): significant reduction of β-amyloid
  Average level of βA: 2.985 ± 0.2 ng/g tissue
  Individual levels of βA: 2.525 ng/g tissue and 3.704 ng/g tissue and 3.705 ng/g tissue and 2.398 ng/g tissue and 2.91 ng/g tissue and 2.77 ng/g tissue and 2.882 ng/g tissue
